By IC50 is commonly meant the concentration that inhibits the measured activity by half. High values mean weaker potency in that assay, low ones greater potency in that assay.

Where only a bound is given, the exact number is not on record here.

The first assay addresses MTH1 (Homo sapiens, UniProt P36639). Put plainly: MTH1 enzymatic assay and IC50 value determination (malachite green). It counts as biochemical. The conditions noted are these: MTH1 4.8 nM, dGTP 100 μM, 15 minutes at 22° C.; group: between 2 μM and 10 μM. The method, then: MTH1 Enzymatic Assay and IC50 Value Determination
MTH1 catalyzes the hydrolysis of dGTP to dGMP and PPi. By coupling the reaction to pyrophosphatase added in excess PPi is converted to Pi that can be detected by using the malachite green assay reagent. Briefly, for IC50 value determination the compound to be analyzed is diluted in assay buffer in a 1:3 dilution series generating 12 different compound concentrations giving a final DMSO concentration of 1% in the assay well. MTH1 diluted in assay buffer (100 mM Tris-acetate, 40 mM NaCl, 10 mM magnesium acetate, 1 mM DTT and 0.005% Tween 20) fortified with E. coli pyrophosphatase (0.8 U/ml) is added to a final concentration of 4.8 nM. dGTP diluted in assay buffer is added to a final concentration of 100 μM. The reaction mixture is incubated with shaking for 15 minutes at 22° C. To 100 μl reaction mixture is 25 μl Malachite green assay regent (0.095% Malachite green in 17% H2SO4, 1.5% Ammonium molybdate, 0.17% Tween 20) added followed by incubation with shaking for 15 minutes at 22° C.
The absorbance of the assay plate is read at 630 nm using an EnVision Multilabel plate reader. The IC50 value is determined by fitting a dose response curve to the data points using nonlinear regression analysis and the equation Y=Bottom+(Top−Bottom)/(1+10^((Log IC50−X)*HillSlope)), where Y is the read absorbance at 630 nm and X is log [compound].
In turn, `Cc1cccc(-c2cc(NC3CCCCC3NC(=O)OC(C)(C)C)nc(N)n2)c1C` (mixture of isomers) [Example 372, tert-Butyl N-(2-{[2-amino-6-(2,3-dimethylphenyl)pyrimidin-4-yl]amino}cyclohexyl)-carbamate] had an IC50 of 2000 to 10000 nM.

`CCCNc1cc(-c2ccc(S(C)(=O)=O)cc2)nc(N)n1` [Example 5, 6-(4-methanesulfonylphenyl)-4-N-propylpyrimidine-2,4-diamine] displayed an IC50 of 2000 to 10000 nM.

`Nc1nc(NCCN2CCOCC2)cc(-c2ccccc2)n1` [Example 12, 4-N-[2-(morpholin-4-yl)ethyl]-6-phenylpyrimidine-2,4-diamine] displayed an IC50 of 2000 to 10000 nM.

Turning to `CC(C)(C)Nc1cc(-c2ccc(Cl)cc2)nc(N)n1` [Example 14, 4-N-tert-butyl-6-(4-chlorophenyl)pyrimidine-2,4-diamine], the IC50 is 2000 to 10000 nM.

As for `Nc1nc(NC2CCOCC2)cc(-c2ccc(Cl)cc2)n1` [Example 15, 6-(4-chlorophenyl)-4-N-(oxan-4-yl)pyrimidine-2,4-diamine], the IC50 was in the range of 2000 to 10000 nM.

As for `CC(C)(C)Nc1cc(-c2cccc(C(F)(F)F)c2)nc(N)n1` [Example 20, 4-N-tert-butyl-6-[3-(trifluoromethyl)phenyl]pyrimidine-2,4-diamine], the IC50 fell in the range of 2000 to 10000 nM.

`Nc1nc(NC2CCOCC2)cc(-c2cccc(Cl)c2)n1` [Example 21, 6-(3-chlorophenyl)-4-N-(oxan-4-yl)pyrimidine-2,4-diamine]: the IC50 lay within 2000 to 10000 nM.

In turn, `CNc1cc(-c2ccccn2)nc(N)n1` [Example 78, 4-N-methyl-6-(pyridin-2-yl)pyrimidine-2,4-diamine] had an IC50 of 2000 to 10000 nM.

The assay is the same for the next values; noted with them: MTH1 4.8 nM, dGTP 100 μM, 15 minutes at 22° C.; group: less than 200 nM.
In the case of `CCCNc1cc(-c2ccccc2)nc(N)n1` [Example 4, 6-phenyl-4-N-propylpyrimidine-2,4-diamine], the IC50 was less than 200 nM.

`Nc1nc(NCC2CC2)cc(-c2ccccc2)n1` [Example 6, 4-N-(cyclopropylmethyl)-6-phenylpyrimidine-2,4-diamine] had an IC50 of less than 200 nM.

`Nc1nc(NCc2ccccc2)cc(-c2ccccc2)n1` [Example 11, 4-N-benzyl-6-phenylpyrimidine-2,4-diamine] came in with an IC50 of less than 200 nM.

With `COc1ccc(-c2cc(NC3CC3)nc(N)n2)cc1` [Example 18, 4-N-cyclopropyl-6-(4-methoxyphenyl)pyrimidine-2,4-diamine], the IC50 is less than 200 nM.

The compound `CNc1cc(-c2ccc3c(ccn3S(=O)(=O)c3ccccc3)c2)nc(N)n1` [Example 31, 6-[1-(benzenesulfonyl)-1H-indol-5-yl]-4-N-methylpyrimidine-2,4-diamine] gave an IC50 of less than 200 nM.

`CNc1cc(-c2ccccc2OC)nc(N)n1` [Example 32, 6-(2-methoxyphenyl)-4-N-methylpyrimidine-2,4-diamine] yielded an IC50 of less than 200 nM.

On to `CNc1cc(-c2cncc3ccccc23)nc(N)n1` [Example 35, 6-(isoquinolin-4-yl)-4-N-methylpyrimidine-2,4-diamine], for which the IC50 is less than 200 nM.

With `CNc1cc(-c2ccc(C(F)(F)F)cc2)nc(N)n1` [Example 36, 4-N-methyl-6-[4-(trifluoromethyl)phenyl]pyrimidine-2,4-diamine], the IC50 was less than 200 nM.

`CNc1cc(-c2cccc(C#N)c2)nc(N)n1` [Example 40, 3-[2-amino-6-(methylamino)pyrimidin-4-yl]benzonitrile] showed an IC50 of less than 200 nM.

`CNc1cc(-c2ccc(S(C)(=O)=O)cc2)nc(N)n1` [Example 43, 6-(4-methanesulfonylphenyl)-4-N-methylpyrimidine-2,4-diamine] showed an IC50 of less than 200 nM.

With `CNc1cc(-c2cccc(C(=O)N3CCOCC3)c2)nc(N)n1` [Example 44, 4-N-methyl-6-[3-(morpholine-4-carbonyl)phenyl]pyrimidine-2,4-diamine], the IC50 was less than 200 nM.

Take `CNc1cc(-c2ccc(NS(C)(=O)=O)cc2)nc(N)n1` [Example 46, N-{4-[2-amino-6-(methylamino)pyrimidin-4-yl]phenyl}methanesulfonamide]: the IC50 was less than 200 nM.

`CNc1cc(-c2ccc(C#N)cc2)nc(N)n1` [Example 51, 4-[2-amino-6-(methylamino)pyrimidin-4-yl]benzonitrile] registered an IC50 of less than 200 nM.

For the compound `CNc1cc(-c2cccc3ncccc23)nc(N)n1` [Example 52, 4-N-methyl-6-(quinolin-5-yl)pyrimidine-2,4-diamine], the IC50 was less than 200 nM.

`Nc1nc(NC2CCCC2)cc(-c2ccc(Cl)cc2)n1` [Example 55, 6-(4-chlorophenyl)-4-N-cyclopentylpyrimidine-2,4-diamine] returned an IC50 of less than 200 nM.

In turn, `COc1ccc(-c2cc(NC3CCCC3)nc(N)n2)cc1` [Example 56, 4-N-cyclopentyl-6-(4-methoxyphenyl)pyrimidine-2,4-diamine] returned an IC50 of less than 200 nM.

As for `Nc1nc(NC2CCCC2)cc(-c2cccc(C(F)(F)F)c2)n1` [Example 57, 4-N-cyclopentyl-6-[3-(trifluoromethyl)phenyl]pyrimidine-2,4-diamine], the IC50 was less than 200 nM.

On to `COc1ccc(-c2cc(NC3CCC3)nc(N)n2)cc1` [Example 59, 4-N-cyclobutyl-6-(4-methoxyphenyl)pyrimidine-2,4-diamine], for which the concentration for half-maximal inhibition (IC50) is less than 200 nM.

In turn, `Nc1nc(NC2CCC2)cc(-c2cccc(Cl)c2Cl)n1` [Example 64, 4-N-cyclobutyl-6-(2,3-dichlorophenyl)pyrimidine-2,4-diamine] returned an IC50 of less than 200 nM.

Regarding `Nc1nc(NC2CCCC2)cc(-c2cccc(Cl)c2Cl)n1` [Example 65, 4-N-cyclopentyl-6-(2,3-dichlorophenyl)pyrimidine-2,4-diamine], the IC50 was less than 200 nM.

Turning to `CCNc1cc(-c2cccc(Cl)c2Cl)nc(N)n1` [Example 66, 6-(2,3-dichlorophenyl)-4-N-ethylpyrimidine-2,4-diamine], the 50% inhibitory concentration (IC50) was less than 200 nM.

`Nc1nc(NC2CCOC2)cc(-c2cccc(Cl)c2Cl)n1` (stereo not drawn) [Example 67, 6-(2,3-dichlorophenyl)-4-N-(oxolan-3-yl)pyrimidine-2,4-diamine] gave an IC50 of less than 200 nM.

Regarding `CNc1cc(-c2cc(F)c(F)cc2F)nc(N)n1` [Example 72, 4-N-methyl-6-(2,4,5-trifluorophenyl)pyrimidine-2,4-diamine], the IC50 was less than 200 nM.

In turn, `CNc1cc(-c2ccc(F)cc2OC)nc(N)n1` [Example 73, 6-(4-fluoro-2-methoxyphenyl)-4-N-methylpyrimidine-2,4-diamine] came in with an IC50 of less than 200 nM.

`CNc1cc(-c2cc(Cl)ccc2C)nc(N)n1` [Example 74, 6-(5-chloro-2-methylphenyl)-4-N-methylpyrimidine-2,4-diamine] gave an IC50 of less than 200 nM.

With `CNc1cc(-c2ccccc2Cl)nc(N)n1` [Example 77, 6-(2-chlorophenyl)-4-N-methylpyrimidine-2,4-diamine], the IC50 was less than 200 nM.

On to `CNc1cc(-c2ccc(OC)c(C)c2)nc(N)n1` [Example 79, 6-(4-methoxy-3-methylphenyl)-4-N-methylpyrimidine-2,4-diamine], for which the IC50 was less than 200 nM.

`CNc1cc(-c2ccc(F)c(Cl)c2)nc(N)n1` [Example 80, 6-(3-chloro-4-fluorophenyl)-4-N-methylpyrimidine-2,4-diamine] yielded an IC50 of less than 200 nM.

As for `CNc1cc(-c2ccc(OC(F)(F)F)cc2)nc(N)n1` [Example 81, 4-N-methyl-6-[4-(trifluoromethoxy)phenyl]pyrimidine-2,4-diamine], the IC50 is less than 200 nM.

In turn, `CNc1cc(-c2cccc(C(F)(F)F)c2F)nc(N)n1` [Example 85, 6-[2-fluoro-3-(trifluoromethyl)phenyl]-4-N-methylpyrimidine-2,4-diamine] gave an IC50 of less than 200 nM.

`CNc1cc(-c2cccc(Cl)c2F)nc(N)n1` [Example 87, 6-(3-chloro-2-fluorophenyl)-4-N-methylpyrimidine-2,4-diamine] showed an IC50 of less than 200 nM.

Compound `CNc1cc(-c2ccccc2C(F)(F)F)nc(N)n1` [Example 89, 4-N-methyl-6-[2-(trifluoromethyl)phenyl]pyrimidine-2,4-diamine] registered an IC50 of less than 200 nM.

Compound `CNc1cc(-c2cccc3c2cnn3C)nc(N)n1` [Example 90, 4-N-methyl-6-(1-methyl-1H-indazol-4-yl)pyrimidine-2,4-diamine] yielded an IC50 of less than 200 nM.

For the compound `CNc1cc(-c2cccc(F)c2F)nc(N)n1` [Example 93, 6-(2,3-difluorophenyl)-4-N-methylpyrimidine-2,4-diamine], the IC50 is less than 200 nM.

Consider `CNc1cc(-c2cc(Cl)c3c(c2)OCO3)nc(N)n1` [Example 97, 6-(7-chloro-2H-1,3-benzodioxol-5-yl)-4-N-methylpyrimidine-2,4-diamine], for which the IC50 is less than 200 nM.

With `CNc1cc(-c2ccc(OC)c(Cl)c2Cl)nc(N)n1` [Example 98, 6-(2,3-dichloro-4-methoxyphenyl)-4-N-methylpyrimidine-2,4-diamine], the IC50 was less than 200 nM.

In turn, `CNc1cc(-c2cccc(CO)c2)nc(N)n1` [Example 101, {3-[2-amino-6-(methylamino)pyrimidin-4-yl]phenyl}methanol] returned an IC50 of less than 200 nM.

The values above are taken from US10174029B2, “Pyrimidine-2,4-diamine derivatives for treatment of cancer” (THOMAS HELLEDAYS STIFTELSE FOR MEDICINSK FORSKNING, priority 2012, dated 2019).
